Structures are written as SMILES. Values joined by “and” are separate entries in the source; they are usually repeats but may differ in a detail not shown here. Equal entries are not always repeated.

By IC50 is commonly meant the concentration at which inhibition is half-maximal. A lower IC50 goes with higher potency.

One assay concerns the target T1, Amine oxidase [flavin-containing] A (Homo sapiens, UniProt P21397).
T1 sequence (P21397 whole entry): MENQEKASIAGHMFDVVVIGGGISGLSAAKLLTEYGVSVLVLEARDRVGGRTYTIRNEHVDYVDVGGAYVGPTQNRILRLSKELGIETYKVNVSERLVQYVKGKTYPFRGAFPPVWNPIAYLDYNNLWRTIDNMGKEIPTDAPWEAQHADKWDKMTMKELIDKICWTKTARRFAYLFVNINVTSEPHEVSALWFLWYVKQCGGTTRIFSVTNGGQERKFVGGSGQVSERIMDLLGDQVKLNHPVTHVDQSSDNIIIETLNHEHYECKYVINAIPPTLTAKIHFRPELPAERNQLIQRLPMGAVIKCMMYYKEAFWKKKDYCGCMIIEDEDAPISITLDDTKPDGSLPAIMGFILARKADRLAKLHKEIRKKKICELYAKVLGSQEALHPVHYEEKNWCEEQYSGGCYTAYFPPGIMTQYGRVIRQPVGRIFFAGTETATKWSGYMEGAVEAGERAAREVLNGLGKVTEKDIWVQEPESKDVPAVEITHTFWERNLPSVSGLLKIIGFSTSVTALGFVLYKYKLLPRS
Test: not given
The following applies: bti-tn-5b1-4.
For `CC1CCC(=NNc2nc(-c3ccc(Cl)cc3Cl)cs2)CC1` (centres undefined), the midpoint of inhibition, the IC50, lay at 81.5 µM. That is a double-digit micromolar value.

For the next assay, the target named is T1, Amine oxidase [flavin-containing] A. Description: biochemical.
Conditions: not given
`Clc1ccc(-c2csc(NN=C3CCCC3)n2)c(Cl)c1` came in with an IC50 of 54.5 µM.

For `Clc1ccc(-c2csc(NN=C3CCCCCC3)n2)c(Cl)c1`, the IC50 was determined as 59.3 µM.

Regarding `O=[N+]([O-])c1ccc(-c2csc(NN=C3CCCC3)n2)cc1`, it took 0.344 µM to reach half-maximal inhibition (IC50).

In the case of `N#Cc1ccc(-c2csc(NN=C3CCCC3)n2)cc1`, it took 0.644 µM to reach half-maximal inhibition (IC50).

As to `Fc1ccc(-c2csc(NN=C3CCCCC3)n2)c(F)c1`, the midpoint of inhibition, the IC50, lay at 45.8 µM.

In turn, `O=[N+]([O-])c1ccc(-c2csc(NN=C3CCCCCC3)n2)cc1` displayed an IC50 of 17.9 µM.

`Fc1ccc(-c2csc(NN=C3CCCCCC3)n2)c(F)c1`: the half-maximal inhibitory concentration (IC50) came to 7.23 µM.

As to `Fc1ccc(-c2csc(NN=C3CCCC3)n2)c(F)c1`, the IC50 was 2.29 µM and 2.32 µM.
